Results reported in patent US5580982A, “Substituted 3-(aminoalkylamino)-1,2-benzisoxazoles and related compounds” (priority 1995, dated 1996).

These molecules were tested against T1, MAO-B (Rattus norvegicus, UniProt P19643) (assay: Inhibition of Type B monoamine oxidase activity in rat brain synaptosomes). Conditions: substrate [^14 C]-PEA 200 μM; read-out: Inhibitory Concentration - IC50 MAO-B.
T1 construct: the whole brain without cerebellum was dissected rapidly and frozen on dry ice; from tissue; host or cells: whole brain without cerebellum of orally dosed male Wistar rats, homogenate
T1 sequence (P19643 1-520): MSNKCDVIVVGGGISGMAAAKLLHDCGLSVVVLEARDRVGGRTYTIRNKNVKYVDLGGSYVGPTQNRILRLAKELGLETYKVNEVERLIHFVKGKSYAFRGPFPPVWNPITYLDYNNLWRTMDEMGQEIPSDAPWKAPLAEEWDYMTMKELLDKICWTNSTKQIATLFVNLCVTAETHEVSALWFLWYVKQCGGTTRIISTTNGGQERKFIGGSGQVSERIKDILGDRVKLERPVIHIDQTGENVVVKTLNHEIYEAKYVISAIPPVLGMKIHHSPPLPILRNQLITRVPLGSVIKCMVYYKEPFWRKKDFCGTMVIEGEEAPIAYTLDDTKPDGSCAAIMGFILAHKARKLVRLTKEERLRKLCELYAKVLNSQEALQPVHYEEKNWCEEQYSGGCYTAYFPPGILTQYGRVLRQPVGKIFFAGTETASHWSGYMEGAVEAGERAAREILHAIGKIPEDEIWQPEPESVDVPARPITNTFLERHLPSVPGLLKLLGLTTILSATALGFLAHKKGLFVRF
Assay type: biochemical
Excerpt: Male Wistar rats weighing 150-250 grams were sacrificed and the brains rapidly removed.
Molecule `COc1ccc2c(N3CCN(c4ccncc4)CC3)noc2c1` [6-Methoxy-3-[1-(4-pyridyl)piperazinyl)]-1,2-benzisoxazole] has an IC50 of 45 µM.
In the case of `COc1ccc2c(N(C)CCN3CCOCC3)noc2c1` [6-Methoxy-N-methyl-N-[2-(4-morpholinyl)ethyl]-1,2-benzisoxazol-3-amine], the IC50 is reported as > 1000 µM.

What follows are molecules tested against T2, MAO-A (Rattus norvegicus, UniProt P21396) (assay: Inhibition of Type A monoamine oxidase activity in rat brain synaptosomes). Conditions: substrate [^3 H]-5HT 200 μM; read-out: Inhibitory Concentration - IC50 MAO-A.
T2 construct: the whole brain without cerebellum was dissected rapidly and frozen on dry ice; from tissue; host or cells: whole brain without cerebellum of orally dosed male Wistar rats, homogenate
T2 sequence (P21396 1-526): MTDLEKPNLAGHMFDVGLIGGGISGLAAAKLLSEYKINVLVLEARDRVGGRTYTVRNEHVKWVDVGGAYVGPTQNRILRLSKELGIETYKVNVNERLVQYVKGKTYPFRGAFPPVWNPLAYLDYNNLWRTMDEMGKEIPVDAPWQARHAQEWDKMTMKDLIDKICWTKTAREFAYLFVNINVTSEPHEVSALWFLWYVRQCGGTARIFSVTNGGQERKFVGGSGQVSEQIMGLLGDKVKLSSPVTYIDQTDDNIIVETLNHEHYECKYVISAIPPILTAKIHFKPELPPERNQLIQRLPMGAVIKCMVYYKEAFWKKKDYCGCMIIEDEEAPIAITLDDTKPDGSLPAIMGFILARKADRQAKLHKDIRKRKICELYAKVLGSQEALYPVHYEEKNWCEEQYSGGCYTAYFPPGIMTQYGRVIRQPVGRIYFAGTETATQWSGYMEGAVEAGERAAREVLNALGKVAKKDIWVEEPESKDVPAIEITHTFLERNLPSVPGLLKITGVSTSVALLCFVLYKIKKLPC
Assay type: biochemical
Method: Inhibition of Type A and Type B Monoamine Oxidase Activity in Rat Brain Synaptosomes
To determine the selective inhibition of the two forms of monoamine oxidase (MAO).
Although various methods for measuring MAO activity are available, the described method involves the extraction of the radiolabeled deaminated metabolites of [^3 H]-5HT or [^14 C]-β-phenethylamine. This procedure allows MAO-A and MAO-B activities to be measured either simultaneously or individually (3).
c. Add 12 μl of [^3 H]-5HT to 2 ml of the 5 mM 5HT solution. (Final amine concentration in the assay is 200 μM: see below.)
5. Equal amounts of MAO-A (5HT) and MAO-B (PEA) substrates are combined for simultaneously testing both MAO types, i.e. mixed stock solution of 2.5 mM 5HT and 2.5 mM PEA, 40 μl of this mixed solution gives a 200 μM final concentration of each amine in the assay. When testing only one MAO type, the individual 5 mM stock solutions must be diluted 1:1 with distilled water prior to adding 40 μl to the incubation mixture; i.e., same 200 μM final amine concentration.
Male Wistar rats weighing 150-250 grams were sacrificed and the brains rapidly removed. Whole brain minus cerebellum was homogenized in 30 volumes of ice-cold, phosphate-buffered 0.25M sucrose, using a Potter-Elvejhem homogenizer. The homogenate was centrifuged at 1000 g for 10 minutes and the supernatant (S1) decanted and recentrifuged at 18,000 g for 20 minutes. The resulting pellet (P2) was resuspended in fresh 0.25M sucrose and served as the tissue source for mitochondrial MAO.
Tubes are preincubated for 15 minutes at 37° C. and the assay is started by adding 40 μl of combined substrate ([^3 H]-5HT and [^14 C]-PEA) at 15 second intervals. The tubes are incubated for 30 minutes at 37° C. and the reaction stopped by the addition of 0.3 ml 2N HCl. Tissue blank values are determined by adding the acid before the radioactive substrate. The oxidative products of the reaction are extracted with ethyl acetate/toluene (1:1). 5 ml of this mixture is added to the tubes. The resultant mixture is vortexed for 15 seconds to extract the deaminated metabolites into the organic phase and the latter is allowed to separate from the aqueous phase. The tubes are placed in acetone/dry ice bath to freeze the aqueous layer. When this layer is frozen, the top organic layer is poured into a scintillation vial. 10 ml of Liquiscint is added and the samples are counted using window settings for ^14 C in one channel and ^3 H in the second channel. IC50 values are determined by log-probit analysis.
Work on `COc1ccc2c(N3CCN(c4ccncc4)CC3)noc2c1` [6-Methoxy-3-[1-(4-pyridyl)piperazinyl)]-1,2-benzisoxazole] yielded an IC50 of 10 µM.
`CNCCNc1noc2cc(OC)ccc12` [6-Methoxy-N-[2-(methylamino)ethyl)-1,2-benzisoxazol-3-amine] was tested, and the IC50 was 25 µM.
For `COc1ccc2c(N(C)CCN3CCOCC3)noc2c1` [6-Methoxy-N-methyl-N-[2-(4-morpholinyl)ethyl]-1,2-benzisoxazol-3-amine], the IC50 was 13 µM.
For `COc1cc(Br)c2oc(C3CCNCC3)cc2c1` [Brofaromine, reference compound], the IC50 was 0.18 µM.
